Results: ChEMBL document CHEMBL5131559, “Discovery and Preclinical Profiling of GSK3839919, a Potent HIV-1 Allosteric Integrase Inhibitor” (ACS Med Chem Lett, 2022)

Legend:
[1] = test system: Human immunodeficiency virus 1; experiment: Antiviral activity against recombinant HIV1 NLRep-Rluc harbouring polymorphic A124/T125 integrase infected in human MT-2 cells assessed as inhibition of virus growth in presence of fetal bovine serum by measuring luciferase activity after 4 days; format: functional, organism-based; details: Human immunodeficiency virus 1, NLRep, MT2, 96 h
[2] = Cmax in rat at 50 mg/kg,po qd for 1 week; format: ADME, organism-based; set-up: time 1 weeks, dose 50 mg/kg, route po; details: in vivo
[3] = test system: Human immunodeficiency virus 1; experiment: Antiviral activity against recombinant HIV1 NLRep-Rluc harbouring polymorphic N124/A125 integrase infected in human MT-2 cells assessed as inhibition of virus growth in presence of fetal bovine serum by measuring luciferase activity after 4 days; format: functional, organism-based; details: Human immunodeficiency virus 1, NLRep, MT2, 96 h
[4] = Oral bioavailability in Beagle dog at 2 mg/kg by LC-MS/MS analysis; format: ADME, organism-based, Canis lupus familiaris; details: in vivo
[5] = Clearance in Sprague-Dawley rat at 1 mg/kg, iv by LC-MS/MS analysis; format: ADME, organism-based; details: in vivo
[6] = Oral bioavailability in cynomolgus monkey at 2 mg/kg by LC-MS/MS analysis; format: ADME, organism-based, Macaca fascicularis; details: in vivo
[7] = Cytotoxicity against human MT2 cells; format: toxicity, cell-based
[8] = test system: Human immunodeficiency virus 1; experiment: Antiviral activity against recombinant HIV1 NLRep-Rluc harbouring polymorphic T124/T125 integrase infected in human MT-2 cells assessed as inhibition of virus growth in presence of fetal bovine serum by measuring luciferase activity after 4 days; format: functional, organism-based; details: Human immunodeficiency virus 1, NLRep, MT2, 96 h
[9] = test system: Human immunodeficiency virus 1; experiment: Antiviral activity against recombinant HIV1 NLRep-Rluc harbouring polymorphic T124/A125 integrase infected in human MT-2 cells assessed as inhibition of virus growth in presence of fetal bovine serum by measuring luciferase activity after 4 days; format: functional, organism-based; details: Human immunodeficiency virus 1, NLRep, MT2, 96 h
Hepatoma cell line = experiment: Cytotoxicity against rat Hepatoma cell line at 40 to 80 uM; format: toxicity, cell-based; details: dose 40-80 µM
[10] = AUC (0 to infinity) in Sprague-Dawley rat at 5 mg/kg, po by LC-MS/MS analysis; format: ADME, organism-based; set-up: time infinity, dose 5 mg/kg, route po; details: in vivo
[11] = Clearance in cynomolgus monkey at 1 mg/kg, iv by LC-MS/MS analysis; format: ADME, organism-based, Macaca fascicularis; details: in vivo
[12] = test system: Human immunodeficiency virus 1; experiment: Antiviral activity against recombinant HIV1 NLRep-Rluc harbouring polymorphic N124/T125 integrase infected in human MT-2 cells assessed as inhibition of virus growth in presence of fetal bovine serum by measuring luciferase activity after 4 days; format: functional, organism-based; details: Human immunodeficiency virus 1, NLRep, MT2, 96 h
[13] = AUC (0 to infinity) in cynomolgus monkey at 2 mg/kg, po by LC-MS/MS analysis; format: ADME, organism-based, Macaca fascicularis; set-up: time infinity, dose 2 mg/kg, route po; details: in vivo
[14] = Oral bioavailability in CD-1 mouse at 5 mg/kg by LC-MS/MS analysis; format: ADME, organism-based; details: in vivo
[15] = AUC (0 to infinity) in Beagle dog at 2 mg/kg, po by LC-MS/MS analysis; format: ADME, organism-based, Canis lupus familiaris; set-up: time infinity, dose 2 mg/kg, route po; details: in vivo
[16] = Toxicity in human Huh-7 cells assessed as fold change in lipid droplet count at 20 uM incubated for 48 hrs by plate reader assay; format: cell-based; details: hepatoma cell line
[17] = Toxicity in rat assessed as increase in alkaline phosphatase level at 50 mg/kg,po for 1 week; format: organism-based; details: in vivo, 168 h, time 1 weeks
[18] = Clearance in Beagle dog at 1 mg/kg, iv by LC-MS/MS analysis; format: ADME, organism-based, Canis lupus familiaris; details: in vivo
[19] = Toxicity in dog assessed as increase in alkaline phosphatase level at 60 mg/kg,po for 1 week; format: organism-based, Canis lupus familiaris; details: in vivo, 168 h, time 1 weeks
[20] = test system: Human immunodeficiency virus 1; experiment: Antiviral activity against recombinant HIV1 NLRep-Rluc harbouring polymorphic T124/V125 integrase infected in human MT-2 cells assessed as inhibition of virus growth in presence of fetal bovine serum by measuring luciferase activity after 4 days; format: functional, organism-based; details: Human immunodeficiency virus 1, NLRep, MT2, 96 h
[21] = Toxicity in human Huh-7 cells assessed as fold change in lipid droplet count at 10 uM incubated for 48 hrs by plate reader assay; format: cell-based; details: huh-7, 48 h
[22] = Oral bioavailability in Sprague-Dawley rat at 5 mg/kg by LC-MS/MS analysis; format: ADME, organism-based; details: in vivo
[23] = Toxicity in dog assessed as hepatocellular vacuolation at 60 mg/kg,po for 1 week; format: organism-based, Canis lupus familiaris; details: in vivo, 168 h, time 1 weeks
[24] = Clearance in CD-1 mouse at 1 mg/kg, iv by LC-MS/MS analysis; format: ADME, organism-based; details: in vivo
[25] = Toxicity in rat assessed as hepatocellular vacuolation at 50 mg/kg,po for 1 week; format: organism-based; details: in vivo, 168 h, time 1 weeks
Huh-7 = experiment: Cytotoxicity against human Huh-7 cells at 40 to 80 uM; format: toxicity, cell-based; details: huh-7, 80 µM, dose 40-80 µM
[26] = AUC (0 to infinity) in CD-1 mouse at 5 mg/kg, po by LC-MS/MS analysis; format: ADME, organism-based; set-up: time infinity, dose 5 mg/kg, route po; details: in vivo
[27] = Toxicity in rat Hepatoma cell line assessed as fold change in lipid droplet count at 10 uM incubated for 48 hrs by plate reader assay; format: cell-based
[28] = test system: Human immunodeficiency virus 1; experiment: Antiviral activity against recombinant HIV1 NLRep-Rluc harbouring polymorphic A124/A125 integrase infected in human MT-2 cells assessed as inhibition of virus growth in presence of fetal bovine serum by measuring luciferase activity after 4 days; format: functional, organism-based; details: Human immunodeficiency virus 1, NLRep, MT2, 96 h
[29] = test system: Human immunodeficiency virus 1; experiment: Antiviral activity against recombinant HIV1 NLRep-Rluc harbouring polymorphic T124/T125 integrase infected in human MT-2 cells assessed as fold change in inhibition of virus growth in presence of fetal bovine serum by measuring luciferase activity after 4 days; format: functional; set-up: reference not given here; details: time 4 day
[30] = Metabolic stability in human liver microsomes assessed as parent compound disappearance by measuring half life at 0.5 uM in presence of NADPH by LC-MS/MS analysis; format: ADME, Microsome

What does the source list for `Cc1cccc(Cl)c1CN1CCc2cc(-c3cnc(C)c([C@H](OC(C)(C)C)C(=O)O)c3N3CCC(C)(C)CC3)ccc2C1`?
EC50 [1]: 4.5 nM; Cmax [2]: 488 µM; EC50 [3]: 5.7 nM; bioavailability [4]: 89%; clearance [5]: 3.8 mL/min/kg; bioavailability [6]: 51%; CC50 [7]: 19500 nM; EC50 [8]: 2.8 nM; EC50 [9]: 5 nM; Activity (Hepatoma cell line): Toxic; AUC(0-inf) [10]: 21.6 µM·h; clearance [11]: 1.7 mL/min/kg; EC50 [12]: 3.1 nM; AUC(0-inf) [13]: 10.7 µM·h; bioavailability [14]: 47%; AUC(0-inf) [15]: 24.2 µM·h; fold change (FC) [16]: 3.7; Activity [17]: Toxic; clearance [18]: 2.2 mL/min/kg; Activity [19]: Toxic; EC50 [20]: 1.6 nM; fold change (FC) [21]: 1.2; bioavailability [22]: 71%; Activity [23]: Toxic; clearance [24]: 1 mL/min/kg; Activity [25]: Toxic; Activity (Huh-7): Toxic; AUC(0-inf) [26]: 43.1 µM·h; fold change (FC) [27]: 1.8; EC50 [28]: 4.6 nM

With `Cc1nc(C)c([C@H](OC(C)(C)C)C(=O)O)c(N2CCC(C)(C)CC2)c1-c1cnn(CCCc2ccc(F)cc2)c1` as the compound, how does the CC50 [7] read?
Its CC50 is no less than 22000 nM.

And the EC50 [8]?
Its EC50 is 8.8 nM.

What about the “fold change (FC)” value [29] of the same compound?
Its value is 4.8.

What about the half-life at 0.5 µM [30] of the same compound?
Its half-life at 0.5 µM is 34 min.

Which EC50 [3] does the source give for `Cc1nc(C)c([C@H](OC(C)(C)C)C(=O)O)c(N2CCC(C)(C)CC2)c1-c1ccc2c(c1)CCN(c1nccc(-c3cnccn3)n1)C2` here?
Its EC50 is 7.9 nM.

What about the clearance [5] of the same compound?
The clearance was 2.1 mL/min/kg.

What about the CC50 [7] of the same compound?
The CC50 was no less than 17000 nM.

And the EC50 [8]?
The EC50 was 2.2 nM.

What about the AUC(0-inf) [10] of the same compound?
The AUC(0-inf) was 23.7 µM·h.

And the bioavailability [22]?
The bioavailability was 38%.

Which results are given for `Cc1nc(C)c([C@H](OC(C)(C)C)C(=O)O)c(N2CCC(C)(C)CC2)c1-c1ccc2c(c1)CCN(c1nc3cnccc3s1)C2`?
EC50 [3]: 2.6 nM; clearance [5]: 14.8 mL/min/kg; CC50 [7]: ≥ 17000 nM; EC50 [8]: 1.5 nM; AUC(0-inf) [10]: 10.8 µM·h; bioavailability [22]: > 100%

With `Cc1nc(C)c([C@H](OC(C)(C)C)C(=O)O)c(N2CCC(C)(C)CC2)c1-c1ccc2c(c1)CC[C@H](Cc1ccc(F)cc1)O2` as the compound, how does the EC50 [3] read?
The EC50 was 12.8 nM.

What about the CC50 [7] of the same compound?
The CC50 was no less than 22000 nM.

What about the EC50 [8] of the same compound?
Its EC50 is 2.5 nM.

What about the “fold change (FC)” value [29] of the same compound?
The value was 5.
